Experimental findings from patent publication US20240034765A1, “SCG2 NEUROPEPTIDES AND USES THEREOF” (PRESIDENT AND FELLOWS OF HARVARD COLLEGE, priority 2020, published 2024) are described below.

Data set [1] has as its system IPSCs in CA1 pyramidal neurons. The data set is described as follows: Check that IPSCs in dual whole-cell recordings are monosynaptic (onset latency). It is filed as cell-based, mice. As to conditions: NBQX and (R)-CPP added together in the bath.
Experimental: For electrical stimulation experiments, electrical current was delivered via theta glass stimulation electrode placed in the center of stratum pyramidale or stratum radiatum within 150-200 μm of the recorded neuron pair. The stimulus strength was the minimum required to generate small but reliable currents in both neurons. IPSCs were pharmacologically isolated via the addition of 10 μM NBQX (TOCRIS 1044) and 10 μM (R)-CPP (TOCRIS 0247) to the ACSF perfusion.
For the paired interneuron-to-CA1 pyramidal neuron recordings, the monosynaptic nature of the IPSCs was confirmed based on the expected onset latency of 1-3 ms in slice.
Data set [2] deals with PV-IPSCs in CA1 PCs. As to the kind of experiment: shRNA-mediated gene knockdown, dual whole-cell recordings of light-evoked PV-IPSCs. It is filed as in vivo. As to conditions: Dlx5/6Flp; PVCre mice treated with KA for 24 h. The source says: To identify molecular effector(s) of bidirectional perisomatic inhibitory plasticity downstream of Fos activation, short hairpin RNA (shRNA)-mediated gene knockdown was used to determine if any of the six candidate genes mediate the activity-dependent strengthening of PV-mediated inhibition. After verifying the efficiency of knockdown in neurons (see e.g., FIG. 13B) and the absence of adverse effects on overall neuronal viability, individual shRNAs were cloned into a Flp-OFF AAV, allowing payload inactivation by Flp recombinase and the exclusion of shRNA expression in GABAergic INs when using Dlx5/6^Flp mice (see e.g., FIG. 4A, FIG. 4B, FIG. 13C, FIG. 8A).
Following sparse transduction of neurons, PV-IPSCs was simultaneously measured in neighboring pairs of shRNA-positive (mCherry^+) and shRNA-negative (mCherry^−) PCs by photostimulating PV-specific ChR2-expressing boutons in Dlx5/6^Flp; PV^Cre mice that had been treated with KA for 24 h (see e.g., FIG. 4B). […] Similar results were observed following more the physiological condition of NE exposure (see e.g., FIG. 4E, FIG. 13F), indicating a prominent role for CA1 PC-derived Scg2 in the long-term regulation of PV-mediated inhibition.
Viral vectors and titers. All AAVs used were prepared in a Hospital Viral Core and were of serotype AAV2/1. For sparse transductions, viruses were injected at 1×10^8 genome copies per hippocampal hemisphere. For dense transductions, viruses were injected at 2×10^9 genome copies (gc) per hippocampal hemisphere. The viral vectors and original titers were as follows: pAAV-EF1a-DIO-hChR2(H134R)-EYFP (ADDGENE 20298, 1.75×10^13 gc/mL), pAAV-EF1a-fDIO-hChR2(H134R)-EYFP (ADDGENE 55639, 1.39×10^13 gc/mL), pAAV-hSyn-Con/Fon-hChR2-EYFP (ADDGENE 55645, […]), pAAV-pRAM-tTA::TRE-NLS-mKate2-WPREpA (ADDGENE 84474, 2.25×10^13 gc/mL), pAAV-CAG-Cre-GFP (OHIO STATE UNIVERSITY, 1.75×10^13 gc/mL), pAAV-CAG-Cre-mCherry (described herein, 9.10×10^12 gc/mL), pAAV-CAG-Cre-mTagBFP2 (described herein, 2.97×10^12 gc/mL), pAAV-CAG-deltaCre-GFP (described herein, 2.79×10^12 gc/mL), pAAV-FlpOFF-u6-shRNA-CAG-mCherry (described herein): Scrambled control shRNA (SEQ ID NO: 13, ACTTACGCTGAGTACTTCG) (5.08×10^13 gc/mL), Inhba (SEQ ID NO: 14, […]) (4.62×10^13 gc/mL), Bdnf (SEQ ID NO: 15, […]) (6.97×10^13 gc/mL), Pcsk1 (SEQ ID NO: 16, […]) (6.02×10^12 gc/mL), Nptx2 (SEQ ID NO: 17, […]) (1.30×10^12 gc/mL), Scg2#1 (SEQ ID NO: 18, […]) (8.11×10^11 gc/mL), Scg2#2 (SEQ ID NO: 19, […]) (2.75×10^13 gc/mL), Rgs2 (SEQ ID NO: 20, […]) (6.14×10^12 gc/mL), pAAV-CaMKIIa-mCherry (described herein, 3.80×1012 gc/mL), pAAV-CaMKIIa-hM3DGq-T2A-mCherry (described herein, 1.20×10^12 gc/mL), pAAV-hSyn-FlpOFF-Kir2.1-T2A-mCherry (described herein, 2.26×10^12 gc/mL), pAAV-hSyn-FlpOFF-Kir.2.1(Mutant)-T2A-mCherry (described herein, 1.28×10^12 gc/mL; see e.g., Xue et al. (2014), supra), pAAV-u6(Frt)-shRNA#31-CAG-Scg2-rescue (shRNA-resistant)-1×HA-T2A-mCherry-Frt-SV40 (described herein, 1.88×10^12 gc/mL), pAAV-CAG-DIO-Scg2(WT)-3×HA-bGH polyA (described herein, 8.22×10^13 gc/mL), pAAV-CAG-DIO-Scg2(9AA Mutant)-3×HA-bGH polyA (described herein, 6.13×10^13 gc/mL), pAAV-CAG-Frt-Scg2(WT)-1×HA-T2A-mCherry-Frt-bGH polyA (described herein, 1.08×10^13 gc/mL), and pAAV-CAG-Scg2(9AA Mutant)-1×HA-T2A-mCherry-Frt-bGH polyA (described herein, 3.71×10^12 gc/mL).
Ex vivo electrophysiology.

For another data set, the system named is CCK-IPSCs in CA1 PCs. The data set is described as follows: Scg2 rescue and overexpression, dual whole-cell recordings of CCK-IPSCs. The data set is classed as in vivo, mice.
Data set [3] concerns PV-IPSCs in CA1 PCs. The data set is described as follows: Scg2 rescue and overexpression, dual whole-cell recordings of PV-IPSCs. The data set is classed as in vivo, mice. The source says:
These findings were further corroborated through a series of rescue and overexpression experiments. […] In addition, amplitudes of light-evoked PV-IPSCs or CCK-IPSC were compared in Scg2-overexpressing (Scg2-OE) and neighboring control (Scg2-WT) neurons; gain-of-function of Scg2 was sufficient to strengthen PV-mediated inhibition and weaken CCK-mediated inhibition, respectively, in the absence of neural activity (see e.g., FIG. 5J, FIG. 15E, FIG. 15F).
Cleavage of the Scg2 precursor gives rise to multiple neuropeptides with distinct functions (see e.g., FIG. 4F). Given that Scg2 cleavage is directed by a series of internal dibasic residues, a cleavage-resistant form of Scg2 was generated in which the nine dibasic sequences were mutated to alanine (9AA-Mut).
Viral vectors and titers. All AAVs used were prepared in a Hospital Viral Core and were of serotype AAV2/1. For sparse transductions, viruses were injected at 1×10^8 genome copies per hippocampal hemisphere. For dense transductions, viruses were injected at 2×10^9 genome copies (gc) per hippocampal hemisphere. […]

[4] abbreviates: exogenous expression in shRNA-mediated knockdown or Scg2fl/fl knockout conditions.
[5] abbreviates: overexpression in the absence of neural activity.

On to `O=C(O)[C@H]1CN(CCCP(=O)(O)O)CCN1` [(R)-CPP, 3-((R)-2-Carboxypiperazin-4-yl)-propyl-1-phosphonic acid], for which, in data set [1], the “onset latency of the IPSCs” value is “did not alter”.
Same read-out and setting: the value for `NS(=O)(=O)c1cccc2c1c([N+](=O)[O-])cc1nc(O)c(O)nc12` [NBQX, 2,3-dihydroxy-6-nitro-7-sulphamoyl-benzo(F)quinoxaline] was “did not alter”.
“shRNA Bdnf: shRNA in pAAV-FlpOFF-u6-shRNA-CAG-mCherry, SEQ ID NO: 15, GAATTGGCTGGCGATTCATA”: the “amplitudes of PV-IPSC in shRNA-positive versus neighboring shRNA-negative PCs” value in the data set on PV-IPSCs in CA1 PCs [2] was “slight decrease”.
Same read-out and setting: the value for “shRNA Inhba: shRNA in pAAV-FlpOFF-u6-shRNA-CAG-mCherry, SEQ ID NO: 14, CCTTCCACTCAACAGTCATT” was “no effects”; that for “shRNA Nptx2: shRNA in pAAV-FlpOFF-u6-shRNA-CAG-mCherry, SEQ ID NO: 17, GAAGACATTGCCTGAGCTGT” was “no effects”; that for “shRNA Pcsk1: shRNA in pAAV-FlpOFF-u6-shRNA-CAG-mCherry, SEQ ID NO: 16, GATAATGATCATGATCCATT” was “no effects”.
“shRNA Rgs2: shRNA in pAAV-FlpOFF-u6-shRNA-CAG-mCherry, SEQ ID NO: 20, GCTCCCAAAGAGATAAACAT”: the “amplitudes of PV-IPSC in shRNA-positive versus neighboring shRNA-negative PCs” value in the data set on PV-IPSCs in CA1 PCs [2] is reported as “no effects”.

B1: Scg2: wildtype full-length Scg2 (secretogranin II) precursor protein exogenously expressed from AAV in CA1 pyramidal cells (protein, UniProt Q03517 1-617, looked up)
chain: MAGAKAYRLGAVLLLIHLIFLISGAEAASFQRNQLLQKEPDLRLENVQKFPSPEMIRALEYIEKLRQQAHREESSPDYNPYQGVSVPLQLKENGEESHLAESSRDALSEDEWMRIILEALRQAENEPPSAPKENKPYALNLEKNFPVDTPDDYETQQWPERKLKHMRFPLMYEENSRENPFKRTNEIVEEQYTPQSLATLESVFQELGKLTGPSNQKRERVDEEQKLYTDDEDDVYKTNNIAYEDVVGGEDWSPIEEKIETQTQEEVRDSKENTEKNEQINEEMKRSGQLGLPDEENRRESKDQLSEDASKVITYLRRLVNAVGSGRSQSGPNGDRAARLLQKPLDSQSIYQLIEISRNLQIPPEDLIEMLKAGEKPNGLVEPEQDLELAVDLDDIPEADLDRPDMFQSKMLSKGGYPKAPGRGMVEALPDGLSVEDILNVLGMENVVNQKSPYFPNQYSQDKALMRLPYGPGKSRANQIPKVAWIPDVESRQAPYENLNDQELGEYLARMLVKYPELLNTNQLKRVPSPVSSEDDLQEEEQLEQAIKEHLGPGSSQEMERLAKVSKRIPVGSLKNEDTPNRQYLDEDMLLKVLEYLNQEQAEQGREHLAKRAMENM
modifications: full-length
notes: wildtype full-length Scg2 (secretogranin II) precursor protein exogenously expressed from AAV in CA1 pyramidal cells
B1: the “CCK-mediated inhibition, rescue of loss of Scg2” value with CCK-IPSCs in CA1 PCs (setting [4]) is listed as “restored to control levels”. In the data set on CCK-IPSCs in CA1 PCs (setting [5]), the “CCK-mediated inhibition, overexpressing versus neighboring control neurons” value is recorded as “weaken”. Moreover, the “PV-mediated inhibition, rescue of loss of Scg2” value in the data set on PV-IPSCs in CA1 PCs [3] (setting [4]) was “restored to control levels”. Besides, the “PV-mediated inhibition, overexpressing versus neighboring control neurons” value in the data set on PV-IPSCs in CA1 PCs [3] (setting [5]) is listed as “strengthen”.
